Test results as given in patent publication US10351522B2, “Sulfonamide derivative and pharmaceutically acceptable acid addition salt thereof” (UNIVERSITY OF TSUKUBA, priority 2015, dated 2019).
Where two headings read alike, the source gives them in different places.

Key:
human OX2R = molecular target: T1, human OX2R (Homo sapiens, UniProt O43614); test: Agonist activity against OX2R: intracellular calcium (Fura-2AM, FDSS7000) in CHOOX2R cells; format: cell-based; settings: relative to orexin-A as full agonist (100%)
T1 construct: expressed in transfected cells; host or cells: CHO (Chinese hamster ovary) cells, line CHOOX2R, co-expressing NFAT-luciferase
T1 sequence (O43614 1-444): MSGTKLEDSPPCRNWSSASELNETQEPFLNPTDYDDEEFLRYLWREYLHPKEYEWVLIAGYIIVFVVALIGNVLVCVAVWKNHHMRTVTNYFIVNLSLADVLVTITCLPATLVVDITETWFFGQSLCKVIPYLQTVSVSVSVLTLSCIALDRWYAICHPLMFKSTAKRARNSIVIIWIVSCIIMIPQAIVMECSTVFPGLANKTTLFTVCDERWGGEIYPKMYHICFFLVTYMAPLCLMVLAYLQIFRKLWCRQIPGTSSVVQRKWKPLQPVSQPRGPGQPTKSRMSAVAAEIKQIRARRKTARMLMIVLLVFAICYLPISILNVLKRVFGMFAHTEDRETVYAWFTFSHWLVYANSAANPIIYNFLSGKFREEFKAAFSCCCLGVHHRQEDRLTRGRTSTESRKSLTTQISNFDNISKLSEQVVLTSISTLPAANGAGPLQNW
Procedure, shortened: (§1)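 Response is agonist activity at 0.1, 1.0 or 10 μM compound as a percentage of the orexin-A full-agonist maximum, taken from 340/380 nm Fura-2 ratio changes. Each cell line is CHO constitutively expressing human OX1R or OX2R with NFAT-luciferase, dye-loaded 60 min with 5 μM Fura-2AM; compound range 10^−7–10^−5 M, 1% DMSO.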

human OX1R = molecular target: T2, human OX1R (Homo sapiens, UniProt O43613); test: Agonist activity against OX1R: intracellular calcium (Fura-2AM, FDSS7000) in CHOOX1R cells; format: cell-based; settings: for Emax at 0.1 µM / Emax at 1 µM / Emax at 10 µM: read-out: Response (%) OX1R
T2 construct: expressed in transfected cells; host or cells: CHO (Chinese hamster ovary) cells, line CHOOX1R, co-expressing NFAT-luciferase
T2 sequence (O43613 1-425): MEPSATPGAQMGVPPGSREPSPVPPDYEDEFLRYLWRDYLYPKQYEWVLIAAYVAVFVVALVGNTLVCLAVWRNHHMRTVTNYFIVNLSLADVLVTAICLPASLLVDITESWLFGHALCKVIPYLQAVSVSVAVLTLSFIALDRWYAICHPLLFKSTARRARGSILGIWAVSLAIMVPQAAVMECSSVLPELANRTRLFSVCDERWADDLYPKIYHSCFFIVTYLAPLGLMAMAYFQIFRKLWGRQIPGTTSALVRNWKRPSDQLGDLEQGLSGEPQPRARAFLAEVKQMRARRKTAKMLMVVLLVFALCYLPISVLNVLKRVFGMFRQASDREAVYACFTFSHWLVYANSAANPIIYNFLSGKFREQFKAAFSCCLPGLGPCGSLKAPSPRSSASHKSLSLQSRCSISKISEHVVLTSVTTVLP
Procedure, shortened: as §1

[1] = 0.1 μM test compound, relative to orexin-A as full agonist (100%)
[2] = 1.0 μM test compound, relative to orexin-A as full agonist (100%)
[3] = 10 μM test compound, relative to orexin-A as full agonist (100%)
[4] = test compound 0.1 μM, relative to orexin-A as full agonist (100%)
[5] = test compound 1.0 μM, relative to orexin-A as full agonist (100%)
[6] = test compound 10 μM, relative to orexin-A as full agonist (100%)

| Structure (SMILES) | Response (%) OX2R (human OX2R; 0.1 μM test compound) [%] | Response (%) OX2R (human OX2R; 1.0 μM test compound) [%] | Response (%) OX2R (human OX2R; 10 μM test compound) [%] | Response (%) OX2R (human OX2R; test compound 0.1 μM) [%] | Response (%) OX2R (human OX2R; test compound 1.0 μM) [%] | Response (%) OX2R (human OX2R; test compound 10 μM) [%] | Response (%) OX1R (human OX1R; [1]) [%] | Response (%) OX1R (human OX1R; [2]) [%] | Response (%) OX1R (human OX1R; [3]) [%] | Response (%) OX1R (human OX1R; [4]) [%] | Response (%) OX1R (human OX1R; [5]) [%] | Response (%) OX1R (human OX1R; [6]) [%] | other results |
| --- | --- | --- | --- | --- | --- | --- | --- | --- | --- | --- | --- | --- | --- |
| COc1ccc(-c2cccc(C(=O)N(C)C)c2)cc1S(=O)(=O)Nc1cccc(NC(=O)Nc2ccccc2)c1 [Example 37, 4′-methoxy-N,N-dimethyl-3′-(N-(3-(3-phenylureido)phenyl)sulfamoyl)-[1,1′-biphenyl]-3-carboxamide] | 55 | 88 | 81 | – | – | – | – | – | – | – | – | – | Emax at 0.1 µM (human OX1R; [1]): < 5%; Emax at 1 µM (human OX1R; [2]): < 5%; Emax at 10 µM (human OX1R; [3]): < 5% |
| COc1ccc(-c2cccc(C(=O)N(C)C)c2)cc1S(=O)(=O)Nc1cccc(N(C)C(=O)N(C)c2cccc(N(C)C)c2)c1 [Example 126, 3′-(N-(3-(3-(3-(dimethylamino)phenyl)-1,3-dimethylureido)phenyl)sulfamoyl)-4′-methoxy-N,N-dimethyl-[1,1′-biphenyl]-3-carboxamide] | – | – | – | 7 | 37 | 85 | – | – | – | – | – | – | Emax at 0.1 µM (human OX1R): 5%; Emax at 1 µM (human OX1R): 5%; Emax at 10 µM (human OX1R): < 5% |
| COc1ccc(-c2cccc(C(=O)N(C)C)c2)cc1S(=O)(=O)Nc1cccc(NC(=O)Nc2ccc(N(C)C)cc2)c1 [Example 39] | 73 | 59 | 53 | – | – | – | <5 | <5 | 32 | – | – | – | – |
| COc1ccc(-c2cccc(C(=O)N(C)C)c2)cc1S(=O)(=O)Nc1cccc(NS(=O)(=O)c2cccc(F)c2)c1 [Example 88] | – | – | – | 15 | 13 | 13 | – | – | – | 7 | 7 | 9 | – |
| COc1ccccc1Nc1c(Nc2cccc(NS(=O)(=O)c3cc(-c4cccc(C(=O)N(C)C)c4)ccc3OC)c2)c(=O)c1=O [Example 83] | – | – | – | <5 | <5 | 11 | – | – | – | <5 | <5 | 9 | – |
| COc1ccc(-c2cccc(C(=O)N(C)C)c2)cc1S(=O)(=O)Nc1cccc(NC(=O)Nc2cccc(N)c2)c1 [Example 63] | 8 | 55 | 66 | – | – | – | 9 | 9 | 7 | – | – | – | – |
| COc1ccc(-c2cccc(C(=O)N(C)C)c2)cc1S(=O)(=O)Nc1cccc(NC(=O)Nc2ccccc2[N+](=O)[O-])c1 [Example 46] | 74 | 101 | 115 | – | – | – | <5 | <5 | 8 | – | – | – | – |
| COc1ccc(-c2cccc(C(=O)N(C)C)c2)cc1S(=O)(=O)Nc1cccc(NC(=O)c2cccc(Br)c2)c1 [Example 3] | <5 | 6 | 23 | – | – | – | 14 | 9 | 12 | – | – | – | – |
| COc1ccc(-c2cccc(C(=O)N(C)C)c2)cc1S(=O)(=O)Nc1cccc(NS(=O)(=O)N(C)C)c1 [Example 87] | – | – | – | <5 | 10 | 56 | – | – | – | <5 | <5 | <5 | – |
| COc1ccc(-c2cccc(C(=O)N(C)C)c2)cc1S(=O)(=O)Nc1cccc(N2CCN(c3ccc(N(C)C)cc3)C2=O)c1 [Example 131] | – | – | – | 43 | 96 | 101 | – | – | – | <5 | <5 | 18 | – |
